Assay results as given in patent US11873290B2, “Pyridazinone compounds and uses thereof” (Edgewise Therapeutics, Inc., priority 2018, dated 2024).

Biological target: skeletal myofibrils (myosin ATPase activity)
Test: Skeletal Myofibril ATPase Assay
Format: biochemical
Conditions: PK-LDH coupled, absorbance at 340 nm
Experimental: Overview: Myosin ATPase activity is assessed by using a coupled reaction system, in which ADP generated by the myosin ATPase function is coupled to the disappearance of NADH through the pyruvate kinase/lactate dehydrogenase (PK-LDH) system. Myosin ATPase activity produces ADP, which is used as a substrate for PK to produce pyruvate and regenerate ATP. The pyruvate is then used as a substrate by LDH to oxidize NADH to NAD+. The rate of the reaction is monitored through the time-dependent disappearance of NADH using absorbance at 340 nm. Inhibition of ATPase activity by the assayed compounds is indicated by a reduced rate of NADH loss, relative to vehicle-treated controls, over the experimental time window. To assess the selectivity of the assayed compounds for skeletal myofibrils, the compounds are counter-screened in cardiac myofibrils.
Materials: The following stock solutions and reagents were used in the Skeletal Myofibril ATPase Assay:
Stock Solutions of pCa buffer. Combine PIPES, CaCl2, and EGTA solutions with 70 mL of water. Adjust pH to 7.0 and bring final volume to 100 mL.
Skeletal Myofibril ATPase Assay Procedure: BSA, ATP, NADH, PEP, and DTT solutions were thawed at room temperature, then transferred to ice. Pellet-frozen myofibrils (approximately twice the required volume) were transferred into a sufficiently large tube and capped. Myofibrils were thawed by rolling in a water bath for approximately 15 min at room temperature and cooled on ice. Buffers A and B were prepared by adjusting volumes as necessary for required number of wells and stored on ice. 0.5 μL of the compounds to be assayed were added into wells of a 384-well plate. Buffers A and B were mixed by inversion immediately prior to use, then 25 μL of each was dispensed using a Multidrop dispenser (Buffer A first, then Buffer B). The absorbance within the wells was measured at 340 nm, using a kinetic protocol in which the wells are read every 1.5-2 min for 1 h. The reaction rate was qualitatively assessed by subtracting the minimum absorbance value from the maximum value for each well, using either the SoftMax Pro plate reader software or a spreadsheet program such as Excel. Using GraphPad Prism 8.0, the data was normalized, with 100% activity defined as the absorbance change in the 1% DMSO vehicle wells and 0% assigned to no change in absorbance over the course of the experiment. The normalized data were fit to a variable-slope four-parameter logistic model, constraining the bottom to be 0 or greater. Compounds of Table 1 to 4 were tested and results of the assay appear in Table 5 herein. A=IC50 is less than or equal to 10 μM; B=IC50 is greater than 10 μM and less than 100 μM; C=IC50 is greater than 100 μM; […].

| IC50 [µM] | Structure (SMILES) |
| --- | --- |
| < 10 | O=c1ccc(-c2cnc(OCC(F)(F)F)nc2)nn1Cc1cncc(C(F)(F)F)c1 [Compound 77, 6-(2-(2,2,2-trifluoroethoxy)pyrimidin-5-yl)-2-((5-(trifluoromethyl)pyridin-3-yl)methyl)pyridazin-3(2H)-one] |
| < 10 | CCCOc1ncc(-c2ccc(=O)n(Cc3cnc(CC)s3)n2)cn1 [Compound 112, 2-((2-ethylthiazol-5-yl)methyl)-6-(2-propoxypyrimidin-5-yl)pyridazine-3(2H)-one] |
| > 100 | Cc1nc(Cn2nc(-c3ccc(Cl)cc3)ccc2=O)no1 [Compound 350, 6-(4-chlorophenyl)-2-((5-methyl-1,2,4-oxadiazol-3-yl)methyl)pyridazin-3(2H)-one] |
| < 10 | O=c1ccc(-c2cnc(OCC(F)(F)F)nc2)nn1Cc1cncc(Cl)c1 [Compound 1, 2-((5-chloropyridin-3-yl)methyl)-6-(2-(2,2,2-trifluoroethoxy)pyrimidin-5-yl)pyridazine-3(2H)-one] |
| > 100 | O=c1ccc(-c2ccc(OC(F)F)cc2)nn1Cc1ccncn1 [Compound 225, 6-(4-(difluoromethoxy)phenyl)-2-(pyrimidin-4-ylmethyl)pyridazin-3(2H)-one] |
| > 100 | Nc1nnc(Cn2nc(-c3ccc(OC(F)F)cc3)ccc2=O)o1 [Compound 235, 2-((5-amino-1,3,4-oxadiazol-2-yl)methyl)-6-(4-(difluoromethoxy)phenyl)-pyridazin-3(2H)-one] |
| > 100 | O=c1[nH]nc(Cn2nc(-c3ccc(OC(F)F)cc3)ccc2=O)o1 [Compound 234, 5-((3-(4-(difluoromethoxy)phenyl)-6-oxopyridazin-1(6H)-yl)methyl)-1,3,4-oxadiazol-2(3H)-one] |
| < 10 | C/C=C\c1ncc(-c2ccc(=O)n(Cc3cncc(F)c3)n2)cn1 [Compound 352, (Z)-2-((5-fluoropyridin-3-yl)methyl)-6-(2-(prop-1-en-1-yl)pyrimidin-5-yl)pyridazin-3(2H)-one] |
| < 10 | O=c1ccc(-c2ccc(OC(F)F)nc2)nn1Cc1nnc(-c2ccccc2)s1 [Compound 22] |
| < 10 | CCc1ncc(Cn2nc(-c3cnc(OCC(F)(F)F)nc3)ccc2=O)s1 [Compound 99, 2-((2-ethylthiazol-5-yl)methyl)-6-(2-(2,2,2-trifluoroethoxy)pyrimidin-5-yl)pyridazine-3(2H)-one] |
| > 100 | O=c1ccc(-c2cnc(OCc3cncc(F)c3)nc2)nn1Cc1cncc(F)c1 [Compound 107, 6-(2-((5-fluoropyridin-3-yl)methoxy)pyrimidin-5-yl)-2-((5-fluoropyridin-3-yl)methyl)pyridazin-3(2H)-one] |
| < 10 | O=c1ccc(-c2ccc(OC(F)F)cc2)nn1Cc1nnc(-c2ccccc2)s1 [Compound 201, 6-(4-(difluoromethoxy)phenyl)-2-((5-phenyl-1,3,4-thiadiazol-2-yl)methyl)pyridazin-3(2H)-one] |
| 10 to 100 | O=c1ccc(-c2ccc(OC(F)F)cc2)nn1Cc1nc(C2CC2)co1 [Compound 214, 2-((4-cyclopropyloxazol-2-yl)methyl)-6-(4-(difluoromethoxy)phenyl)-pyridazin-3(2H)-one] |

The next lines start with the compound.

| Structure (SMILES) | IC50 [µM] |
| --- | --- |
| CCOc1ccc(-c2ccc(=O)n(Cc3nc(-c4cccs4)no3)n2)cc1 [Compound 308, 6-(4-ethoxyphenyl)-2-((3-(thiophen-2-yl)-1,2,4-oxadiazol-5-yl)methyl)pyridazin-3(2H)-one] | < 10 |
| O=c1ccc(-c2cnc(OCC(F)(F)F)nc2)nn1Cc1cccc(O)n1 [Compound 46, 2-((6-hydroxypyridin-2-yl)methyl)-6-(2-(2,2,2-trifluoroethoxy)pyrimidin-5-yl)pyridazin-3(2H)-one] | > 100 |
| O=c1ccc(-c2ccc(OC(F)F)cc2)nn1Cc1nnc(C(F)(F)F)o1 [Compound 215, 6-(4-(difluoromethoxy)phenyl)-2-((5-(trifluoromethyl)-1,3,4-oxadiazol-2-yl)methyl)pyridazin-3(2H)-one] | 10 to 100 |
| CSc1cncc(Cn2nc(-c3cnc(OCC(F)(F)F)nc3)ccc2=O)c1 [Compound 111] | < 10 |
| O=c1ccc(-c2cnc(OCC(F)(F)F)nc2)nn1Cc1cnc(C2CCC2)s1 [Compound 122, 2-((2-cyclobutylthiazol-5-yl)methyl)-6-(2-(2,2,2-trifluoroethoxy)pyrimidin-5-yl)pyridazine-3(2H)-one] | < 10 |
| O=c1ccc(-c2cnc(OCC(F)(F)F)nc2)nn1Cc1nc2cc(F)ccc2o1 [Compound 55, 2-((5-fluorobenzo[d]oxazol-2-yl)methyl)-6-(2-(2,2,2,- trifluoroethoxy)pyrimidin-5-yl)pyridazin-3(2H)-one] | < 10 |
| CCc1ncc(Cn2nc(-c3cnc(OCC(C)(F)F)nc3)ccc2=O)s1 [Compound 129, 6-(2-(2,2-difluoropropoxy)pyrimidin-5-yl)-2((2-ethylthiazol-5-yl)methyl)pyridazine-3(2H)-one] | < 10 |
| Cc1ncc(-c2ccc(=O)n(Cc3cncc(F)c3)n2)cn1 [Compound 351] | 10 to 100 |
| O=c1ccc(-c2cnc(OCC3(F)COC3)nc2)nn1Cc1nc(-c2ccccc2)no1 [Compound 91] | < 10 |
| O=c1ccc(-c2ccc(OC(F)F)nc2)nn1Cc1[nH]ncc1-c1ccccc1 [Compound 25, 6-(6-(difluoromethoxy)pyridin-3-yl)-2-((4-phenyl-1H-pyrazol-5-yl)methyl) pyridazin-3(2H)-one] | > 100 |
| O=c1ccc(-c2cnc(OCCOC(F)(F)F)nc2)nn1Cc1cncc(F)c1 [Compound 97, 2-((5-fluoropyridin-3-yl)methyl)-6-(2-(2-(trifluoromethoxy)ethoxy)pyrimidin-5-yl)pyridazine-3(2H)-one] | < 10 |
| O=c1ccc(-c2ccc(OC(F)F)cc2)nn1Cc1ncccn1 [Compound 232, 6-(4-(difluoromethoxy)phenyl)-2-(pyrimidin-2-ylmethyl)pyridazin-3(2H)-one] | > 100 |
| CC[C@@H](C)Oc1ncc(-c2ccc(=O)n(Cc3cncc(F)c3)n2)cn1 [Compound 127] | < 10 |
| COc1ccc(-c2ccc(=O)n(Cc3nc(-c4ccc(OC)cc4)no3)n2)cc1 [Compound 310, 6-(4-methoxyphenyl)-2-((3-(4-methoxyphenyl)-1,2,4-oxadiazol-5-yl)methyl)pyridazin-3(2H)-one] | < 10 |
| Cc1ccc(-c2ccc(=O)n(Cc3nc(-c4cccc(Cl)c4)no3)n2)cc1 [Compound 314, 2-((3-(3-chlorophenyl)-1,2,4-oxadiazol-5-yl)methyl)-6-(p-tolyl)pyridazin-3(2H)-one] | > 100 |
| O=c1ccc(-c2cnc(OCC(F)(F)F)nc2)nn1Cc1cnco1 [Compound 53, 2-(oxazol-5-ylmethyl)-6-(2-(2,2,2,- trifluoroethoxy)pyrimidin-5-yl)pyridazin-3(2H)-one] | < 10 |
| O=c1ccc(-c2ccc(OC(F)F)cc2)nn1Cc1nccn1CC(F)(F)F [Compound 226, 6-(4-(difluoromethoxy)phenyl)-2-((1-(2,2,2-trifluoroethyl)-1H-imidazol-2-yl)methyl)pyridazin-3(2H)-one] | > 100 |
| O=c1ccc(-c2ccc(OC(F)F)cc2)nn1Cc1cc(C2CC2)no1 [Compound 206, 2-((3-cyclopropylisoxazol-5-yl)methyl)-6-(4-(difluoromethoxy)phenyl) pyridazine-3(2H)-one] | < 10 |
| O=c1ccc(-c2cnc(OCC3COC3)nc2)nn1Cc1cncc(F)c1 [Compound 103, 2((5-fluoropyridin-3-yl)methyl)-6-(2-(oxetan-3-ylmethoxy)pyrimidin-5-yl)pyridazine-3(2H)-one] | < 10 |
| CC[C@H](C)Oc1ncc(-c2ccc(=O)n(Cc3cncc(F)c3)n2)cn1 [Compound 120, (S)-6-(2-(sec-butoxy)pyrimidin-5-yl)-2((5-fluropyridin-3-yl)methyl)pyridazine-3(2H)-one] | < 10 |
| COc1ccc(-c2ccc(=O)n(Cc3nc(-c4ccc(OC)cc4)no3)n2)cc1 [Compound 305, 6-(4-methoxyphenyl)-2-((3-(4-methoxyphenyl)-1,2,4-oxadiazol-5 yl)methyl)pyridazin-3(2H)-one] | < 10 |
| O=c1ccc(-c2cnc(OCC(F)(F)F)nc2)nn1Cc1nnc(-c2ccccc2)s1 [Compound 94, 2-((5-phenyl-1,3,4-thiadiazol-2-yl)methyl)-6-(2-(2,2,2-trifluoroethoxy)pyrimidin-5-yl)pyridazin-3(2H)-one] | < 10 |
| Cc1ccc(-c2noc(Cn3nc(-c4ccc(Cl)cc4)ccc3=O)n2)cc1 [Compound 313, 6-(4-chlorophenyl)-2-((3-(p-tolyl)-1,2,4-oxadiazol-5-yl)methyl)pyridazin-3(2H)-one] | 10 to 100 |
